Laboratory results reported in PubChem BioAssay AID1963864 (Molecular Pharmacology Branch, DTP, NCI, 2024).

Tested on: KRAS PDC multicell spheroid viability
Experiment: Anticancer human tumor 521955-158-R6-J3-PDC patient-derived pancreatic carcinoma cell line growth inhibition [KRAS2]
Conditions: for IC50: curve of first compound; for viability, T/C: stronger effect = lower value
Summary of the method: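 Combination screen of spheroid viability in tumor-cell co-cultures with endothelial (HUVEC) and mesenchymal stem cell stroma. Each agent was tested in half-log dilutions, topping at clinical Cmax or at 10 microM without a known Cmax.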

[1] = second compound 0.0316 µM, first compound 0.0316 µM
[2] = second compound 0.0316 µM, first compound 0.1 µM
[3] = second compound 0.0316 µM, first compound 0.316 µM
[4] = second compound 0.0316 µM, first compound 1 µM
[5] = second compound 0.0316 µM, first compound 3.16 µM
[6] = second compound 0.1 µM, first compound 0.01 µM
[7] = second compound 0.1 µM, first compound 0.0316 µM
[8] = second compound 0.1 µM, first compound 0.1 µM
[9] = second compound 0.1 µM, first compound 0.316 µM
[10] = second compound 0.1 µM, first compound 1 µM
[11] = second compound 0.1 µM, first compound 3.16 µM
[12] = second compound 0.316 µM, first compound 0.01 µM
[13] = second compound 0.316 µM, first compound 0.0316 µM
[14] = second compound 0.316 µM, first compound 0.1 µM
[15] = second compound 0.316 µM, first compound 0.316 µM
[16] = second compound 0.316 µM, first compound 1 µM
[17] = second compound 0.316 µM, first compound 3.16 µM
[18] = second compound 1 µM, first compound 0.01 µM
[19] = second compound 1 µM, first compound 0.0316 µM
[20] = second compound 1 µM, first compound 0.1 µM
[21] = second compound 1 µM, first compound 0.316 µM
[22] = second compound 1 µM, first compound 1 µM
[23] = second compound 1 µM, first compound 3.16 µM
[24] = second compound 3.16 µM, first compound 0.01 µM
[25] = second compound 3.16 µM, first compound 0.0316 µM
[26] = second compound 3.16 µM, first compound 0.1 µM
[27] = second compound 3.16 µM, first compound 0.316 µM
[28] = second compound 3.16 µM, first compound 1 µM
[29] = second compound 3.16 µM, first compound 3.16 µM
[30] = second compound 0.0316 µM, first compound 10 µM
[31] = second compound 0.1 µM, first compound 10 µM
[32] = second compound 0.316 µM, first compound 10 µM
[33] = second compound 1 µM, first compound 10 µM
[34] = second compound 3.16 µM, first compound 10 µM
[35] = second compound 10 µM, first compound 0.01 µM
[36] = second compound 10 µM, first compound 0.0316 µM
[37] = second compound 10 µM, first compound 0.1 µM
[38] = second compound 10 µM, first compound 0.316 µM
[39] = second compound 10 µM, first compound 1 µM
[40] = second compound 10 µM, first compound 3.16 µM
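Note: drug exposure lasted seven days.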
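Throughout, for viability, T/C: 100% = DMSO vehicle wells and lower means fewer viable cells.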

CC1COCCN1c1cc(-c2ccnn2C)c2ccnc(-c3ccn[nH]3)c2n1 (stereo not given) + C=CC(=O)N1CCN(c2nc(OCC3CCCN3C)nc3c2CCN(c2cccc4cccc(C)c24)C3)CC1CC#N
IC50 (second compound 0.0316 µM): > 3.16 µM
IC50 (second compound 0.1 µM): > 3.16 µM
IC50 (second compound 0.316 µM): > 3.16 µM
IC50 (second compound 1 µM): > 3.16 µM
IC50 (second compound 3.16 µM): 0.0121 µM
viability, T/C (second compound 0.0316 µM, first compound 0.01 µM): 88%
viability, T/C [1]: 90.2%
viability, T/C [2]: 89.7%
viability, T/C [3]: 79.8%
viability, T/C [4]: 78.8%
viability, T/C [5]: 92.9%
viability, T/C [6]: 92.6%
viability, T/C [7]: 95.3%
viability, T/C [8]: 77%
viability, T/C [9]: 71.4%
viability, T/C [10]: 75%
viability, T/C [11]: 94.5%
viability, T/C [12]: 89.5%
viability, T/C [13]: 85.1%
viability, T/C [14]: 73.1%
viability, T/C [15]: 74.7%
viability, T/C [16]: 73.6%
viability, T/C [17]: 76.8%
viability, T/C [18]: 71.7%
viability, T/C [19]: 79%
viability, T/C [20]: 68%
viability, T/C [21]: 69.4%
viability, T/C [22]: 59.9%
viability, T/C [23]: 71.7%
viability, T/C [24]: 52.2%
viability, T/C [25]: 39.7%
viability, T/C [26]: 31.9%
viability, T/C [27]: 36.5%
viability, T/C [28]: 27.6%
viability, T/C [29]: 45.8%

CC1OCC2(CCN(c3cnc(Sc4ccnc(N)c4Cl)c(N)n3)CC2)C1N (stereo not given) + C=CC(=O)N1CCN(c2nc(OCC3CCCN3C)nc3c2CCN(c2cccc4cccc(C)c24)C3)CC1CC#N
IC50 (second compound 0.0316 µM): > 10 µM
IC50 (second compound 0.1 µM): > 10 µM
IC50 (second compound 0.316 µM): > 10 µM
IC50 (second compound 1 µM): > 10 µM
IC50 (second compound 3.16 µM): < 0.0316 µM
viability, T/C [1]: 88.4%
viability, T/C [2]: 103%
viability, T/C [3]: 92.2%
viability, T/C [4]: 96%
viability, T/C [5]: 114%
viability, T/C [30]: 109%
viability, T/C [7]: 92.7%
viability, T/C [8]: 97.4%
viability, T/C [9]: 84.2%
viability, T/C [10]: 86.1%
viability, T/C [11]: 114%
viability, T/C [31]: 114%
viability, T/C [13]: 87.5%
viability, T/C [14]: 86.1%
viability, T/C [15]: 85%
viability, T/C [16]: 90.4%
viability, T/C [17]: 101%
viability, T/C [32]: 106%
viability, T/C [19]: 75.7%
viability, T/C [20]: 68.7%
viability, T/C [21]: 64.9%
viability, T/C [22]: 67.4%
viability, T/C [23]: 90.2%
viability, T/C [33]: 113%
viability, T/C [25]: 40.8%
viability, T/C [26]: 32.3%
viability, T/C [27]: 25.2%
viability, T/C [28]: 37.3%
viability, T/C [29]: 28.9%
viability, T/C [34]: 23.7%

CCNC(=O)CC1N=C(c2ccc(Cl)cc2)c2cc(OC)ccc2-n2c(C)nnc21 (stereo not given) + C=CC(=O)N1CCN(c2nc(OCC3CCCN3C)nc3c2CCN(c2cccc4cccc(C)c24)C3)CC1CC#N
IC50 (second compound 0.0316 µM): > 10 µM
IC50 (second compound 0.1 µM): > 10 µM
IC50 (second compound 0.316 µM): > 10 µM
IC50 (second compound 1 µM): > 10 µM
IC50 (second compound 3.16 µM): 0.101 µM
viability, T/C [1]: 106%
viability, T/C [2]: 87.1%
viability, T/C [3]: 64.3%
viability, T/C [4]: 74.9%
viability, T/C [5]: 83.2%
viability, T/C [30]: 76.6%
viability, T/C [7]: 88.6%
viability, T/C [8]: 102%
viability, T/C [9]: 78.4%
viability, T/C [10]: 69.3%
viability, T/C [11]: 73.1%
viability, T/C [31]: 75.9%
viability, T/C [13]: 101%
viability, T/C [14]: 93.2%
viability, T/C [15]: 76%
viability, T/C [16]: 74.5%
viability, T/C [17]: 77.1%
viability, T/C [32]: 69.2%
viability, T/C [19]: 86.6%
viability, T/C [20]: 83.9%
viability, T/C [21]: 77.8%
viability, T/C [22]: 62.2%
viability, T/C [23]: 69.6%
viability, T/C [33]: 81%
viability, T/C [25]: 47%
viability, T/C [26]: 53.1%
viability, T/C [27]: 30.5%
viability, T/C [28]: 1.65%
viability, T/C [29]: 31%
viability, T/C [34]: 35.1%

CC(=O)OC12COC1CC(O)C1(C)C(=O)C(O)C3=C(C)C(OC(=O)C(O)C(NC(=O)OC(C)(C)C)c4ccccc4)CC(O)(C(OC(=O)c4ccccc4)C21)C3(C)C (stereo not given) + CC1OCC2(CCN(c3cnc(Sc4ccnc(N)c4Cl)c(N)n3)CC2)C1N
IC50 (second compound 0.1 µM): > 3.16 µM
IC50 (second compound 0.316 µM): > 3.16 µM
IC50 (second compound 1 µM): > 3.16 µM
IC50 (second compound 3.16 µM): > 3.16 µM
IC50 (second compound 10 µM): > 3.16 µM
viability, T/C [6]: 82.9%
viability, T/C [7]: 65.4%
viability, T/C [8]: 74.1%
viability, T/C [9]: 76.1%
viability, T/C [10]: 95.5%
viability, T/C [11]: 114%
viability, T/C [12]: 83%
viability, T/C [13]: 84.2%
viability, T/C [14]: 72.5%
viability, T/C [15]: 74.9%
viability, T/C [16]: 87.8%
viability, T/C [17]: 108%
viability, T/C [18]: 79.8%
viability, T/C [19]: 83.4%
viability, T/C [20]: 69.7%
viability, T/C [21]: 78.6%
viability, T/C [22]: 96.7%
viability, T/C [23]: 114%
viability, T/C [24]: 88.7%
viability, T/C [25]: 86.6%
viability, T/C [26]: 87.3%
viability, T/C [27]: 94.4%
viability, T/C [28]: 106%
viability, T/C [29]: 109%
viability, T/C [35]: 99.7%
viability, T/C [36]: 88.9%
viability, T/C [37]: 95%
viability, T/C [38]: 99%
viability, T/C [39]: 96.1%
viability, T/C [40]: 118%

CN(C)C/C=C/C(=O)Nc1cc2c(Nc3ccc(F)c(Cl)c3)ncnc2cc1O[C@H]1CCOC1 + CC1OCC2(CCN(c3cnc(Sc4ccnc(N)c4Cl)c(N)n3)CC2)C1N
IC50 (second compound 0.1 µM): > 0.1 µM
IC50 (second compound 0.316 µM): 0.0511 µM
IC50 (second compound 1 µM): 0.0862 µM
IC50 (second compound 3.16 µM): 0.0244 µM
IC50 (second compound 10 µM): > 0.1 µM
viability, T/C (second compound 0.1 µM, first compound 0.000316 µM): 99.4%
viability, T/C (second compound 0.1 µM, first compound 0.001 µM): 84.2%
viability, T/C (second compound 0.1 µM, first compound 0.00316 µM): 76.7%
viability, T/C [6]: 55.3%
viability, T/C [7]: 62.1%
viability, T/C [8]: 54.8%
viability, T/C (second compound 0.316 µM, first compound 0.000316 µM): 99%
viability, T/C (second compound 0.316 µM, first compound 0.001 µM): 84.7%
viability, T/C (second compound 0.316 µM, first compound 0.00316 µM): 69.8%
viability, T/C [12]: 52.9%
viability, T/C [13]: 53%
viability, T/C [14]: 48.3%
viability, T/C (second compound 1 µM, first compound 0.000316 µM): 105%
viability, T/C (second compound 1 µM, first compound 0.001 µM): 86.4%
viability, T/C (second compound 1 µM, first compound 0.00316 µM): 87.4%
viability, T/C [18]: 64.9%
viability, T/C [19]: 69.8%
viability, T/C [20]: 44.7%
viability, T/C (second compound 3.16 µM, first compound 0.000316 µM): 124%
viability, T/C (second compound 3.16 µM, first compound 0.001 µM): 117%
viability, T/C (second compound 3.16 µM, first compound 0.00316 µM): 89.7%
viability, T/C [24]: 124%
viability, T/C [25]: 28.3%
viability, T/C [26]: 34.8%
viability, T/C (second compound 10 µM, first compound 0.000316 µM): 110%
viability, T/C (second compound 10 µM, first compound 0.001 µM): 101%
viability, T/C (second compound 10 µM, first compound 0.00316 µM): 71.8%
viability, T/C [35]: 60.9%
viability, T/C [36]: 50.1%
viability, T/C [37]: 49.2%

O=C(c1cc(Cc2n[nH]c(=O)c3ccccc23)ccc1F)N1CCN(C(=O)C2CC2)CC1 + CC1OCC2(CCN(c3cnc(Sc4ccnc(N)c4Cl)c(N)n3)CC2)C1N
IC50 (second compound 0.1 µM): > 10 µM
IC50 (second compound 0.316 µM): > 10 µM
IC50 (second compound 1 µM): > 10 µM
IC50 (second compound 3.16 µM): > 10 µM
IC50 (second compound 10 µM): > 10 µM
viability, T/C [7]: 83%
viability, T/C [8]: 79.6%
viability, T/C [9]: 75.8%
viability, T/C [10]: 69.6%
viability, T/C [11]: 73.5%
viability, T/C [31]: 84.1%
viability, T/C [13]: 83.8%
viability, T/C [14]: 85.8%
viability, T/C [15]: 84.1%
viability, T/C [16]: 74.8%
viability, T/C [17]: 66.2%
viability, T/C [32]: 69.5%
viability, T/C [19]: 75.8%
viability, T/C [20]: 78.2%
viability, T/C [21]: 81%
viability, T/C [22]: 76%
viability, T/C [23]: 71.9%
viability, T/C [33]: 75.9%
viability, T/C [25]: 96%
viability, T/C [26]: 98.6%
viability, T/C [27]: 88%
viability, T/C [28]: 75.9%
viability, T/C [29]: 78.3%
viability, T/C [34]: 72.1%
viability, T/C [36]: 85.3%
viability, T/C [37]: 85.6%
viability, T/C [38]: 61.5%
viability, T/C [39]: 70.3%
viability, T/C [40]: 70.8%
viability, T/C (second compound 10 µM, first compound 10 µM): 63.9%
